In patent US8389482B2, “Short peptides useful for treatment of ischemia/reperfusion injury and other tissue damage conditions associated with nitric oxide and its reactive species” (New York University, priority 2007, dated 2013):
Residues, ends and D or L forms follow the SMILES beside them.

Experiments:
HeLa cells = experiment: HeLa cell survival upon NO/ONOO- exposure, MTS-based assay; settings: 20 μM peptide vs 5 mM cysteine
Description: The ability of the L-CEFH peptide (Cys-Glu-Phe-His; SEQ ID NO: 1) to reduce cell death caused by nitric oxide (NO) and peroxynitrite (ONOO^−) was tested in cell culture. Following treatment with NO/ONOO^−, HeLa cells were incubated with either a control buffer, 5 mM cysteine, or 20 μM L-CEFH peptide for 40 minutes. The percentage of cells surviving was determined by a MTS-based assay (available from Promega, Madison, Wis.).

[1] = tested on: peroxynitrite (ONOO)-nitrated albumin; experiment: In vitro denitration of peroxynitrite-nitrated albumin, dot-immunoblotting with antibodies against 3-NT; type: biochemical; settings: 20 μM peptide, 10 mM Tris HCl pH 7.2, 25° C., after 10 minutes
Text: Several groups have previously reported an in vivo denitration phenomenon (e.g., Kamisaki et al (1998) Proc Natl Acad Sci USA 95: 11584-11589; Aulak et al (2004) Am J Physiol Heart Circ Physiol 286: H30-H38). However, they tried to isolate denitration activity using pure 3-NT and failed. The present inventors have hypothesized that the stability of pure 3-NT is much higher than the stability of 3-NT incorporated in a protein and used ONOO-nitrated albumin as the substrate for detecting denitration activity.
To test the ability of L-CEFH peptide (Cys-Glu-Phe-His; SEQ ID NO: 1) to mediate 3-NT denitration in vitro, 20 μM CEFH peptide solution containing 10 mM Tris HCl pH 7.2 was added to albumin previously nitrated by peroxynitrite (ONOO^−). Denitration of the peroxynitrite (ONOO)-nitrated albumin following 0, 3, or 10 minutes of incubation with L-CEFH peptide was then visualized by dot-immunoblotting with antibodies against 3-NT.

[2] = tested on: 3-nitrotyrosine (3-NT) in myocardial tissue; experiment: 3-NT accumulation in heart tissue (area at risk) in a rat model of MI, dot-immunoblotting with anti-3-NT antibodies; type: in vivo; settings: 0.7 mg/kg i.v. 5 minutes after beginning of reperfusion
Description: (§1) Myocardial ischemia (MI) was produced in anaesthetized adult male Wistar rats (300-350 grams) under controlled ventilation. After thoracotomy at the fourth intercostal space, the heart was exteriorized and a 6-0 silk ligature was passed under the left coronary artery with a needle. After 30 minutes of MI, the ligature was released and the myocardium was reperfused for 1 hour. Rats were randomized 5 minutes after the beginning of reperfusion to receive either vehicle (control, n=6) or L-CEFH peptide (0.7 mg/kg; n=9) i.v. The extent of MI/R injury, or infarct size, was determined by calculating the ratio of the area of necrosis (NA) to the area at risk (AR). Accumulation of 3-NT in the tested heart tissue corresponding to the area at risk was analyzed by Western dot-immunoblotting of total protein (extracted from the area at risk) with antibodies against 3-NT.

[3] = tested on: rat model of myocardial infarction; experiment: Myocardial ischemia-reperfusion (MI/R) injury in a rat model of myocardial infarction, infarct size NA/AR; type: in vivo
Description: as §1
Rat model of myocardial infarction was generated as disclosed in Example 3, above. 0, 0.02, 0.05, 0.1, 0.14, 0.35, and 0.7 mg/kg of D-CEFH peptide (N≦4 for each concentration) were administered i.v. The extent of MI/R injury, or infarct size, was determined by calculating the ratio of the area of necrosis (NA) to the area at risk (AR).

[4] = tested on: myocardial ischemia (MI) in rats; settings: cited from earlier work
myocardial tissue 3-NT = settings: cited from earlier work
[5] = 5 mg/kg i.v., infused 1 minute prior to ischemia

N[C@@H](CS)C(=O)N[C@@H](CCC(=O)O)C(=O)N[C@@H](Cc1ccccc1)C(=O)N[C@@H](Cc1c[nH]cn1)C(=O)O [L-CEFH, Cys-Glu-Phe-His] (H-CEFH-OH; N-terminus and C-terminus assumed)
times lower concentration than cysteine giving equivalent efficacy (HeLa cells): 250 times | denitration of peroxynitrite (ONOO)-nitrated albumin [1]: > 90% | reduction of 3-NT accumulation as compared to the control [2]: about 70% | decrease in the infarct size (NA/AR) as compared to the control ([3]; 0.7 mg/kg i.v. 5 minutes after beginning of reperfusion, 30 min MI, 1 hour reperfusion): 3-5 fold | dose producing maximal effect in preventing MI/R injury ([3]; i.v., rat model of MI): 0.7 mg/kg

COC(=O)[C@@H](N)CCCNC(=N)N[N+](=O)[O-] [L-NAME]
infarct size ([4]; 50 mg/kg i.p.): reduction | 3-NT (myocardial tissue 3-NT; 50 mg/kg i.p.): reduction

O=NO [sodium nitrite]
I/R infarct size compared with saline treated controls [4, 5]: significant expansion | myocardial tissue 3-NT accumulation compared with saline treated controls (myocardial tissue 3-NT; [5]): significant expansion

Cys-Glu-Phe-His [D-CEFH]
fold lower concentration than L-CEFH for the same effect in preventing MI/R injury ([3]; 0.05 mg/kg vs 0.7 mg/kg, i.v.): 14 fold | activity in preventing MI/R injury as compared to L-CEFH ([3]; i.v., rat model of MI): superior activity | dose producing maximal effect in preventing MI/R injury ([3]; i.v., rat model of MI): 0.1 mg/kg | dose producing the same effect as the maximal effect of L-CEFH (0.7 mg/kg) ([3]; i.v., rat model of MI): 0.05 mg/kg
